The source of these data is patent publication US20110081348A1, “FUNGAL SIGNALLING AND METABOLIC ENZYMES” (priority 2004, published 2011).

In this assay the target is recombinant truncated ILV34 (Aspergillus fumigatus, UniProt Q4X099). The assay can be described thus: biochemical.
Chain of recombinant truncated ILV34 (Q4X099 30-606): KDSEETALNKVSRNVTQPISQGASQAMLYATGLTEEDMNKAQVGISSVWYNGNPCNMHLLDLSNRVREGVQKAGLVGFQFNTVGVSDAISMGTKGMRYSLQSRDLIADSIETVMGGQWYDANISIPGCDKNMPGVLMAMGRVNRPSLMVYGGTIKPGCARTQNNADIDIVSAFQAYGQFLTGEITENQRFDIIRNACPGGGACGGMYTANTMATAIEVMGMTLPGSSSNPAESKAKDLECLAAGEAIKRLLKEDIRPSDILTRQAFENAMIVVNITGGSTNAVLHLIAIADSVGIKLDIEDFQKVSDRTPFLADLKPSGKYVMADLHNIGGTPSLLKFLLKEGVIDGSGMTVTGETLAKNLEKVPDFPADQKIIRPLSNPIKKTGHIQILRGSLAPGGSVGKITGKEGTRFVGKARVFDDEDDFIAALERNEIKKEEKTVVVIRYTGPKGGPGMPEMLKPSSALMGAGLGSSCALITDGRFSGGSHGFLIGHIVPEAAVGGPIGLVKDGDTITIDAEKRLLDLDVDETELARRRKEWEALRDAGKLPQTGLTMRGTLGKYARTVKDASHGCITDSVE

Procedure: The assay for ILV34 is based upon the ability of this enzyme to dehydrate dihydroxyacid substrates to a keto acid. […] The appearance of the keto acid product can be monitored directly at 240 nm; alternatively it can be reacted with semicarbazide and sodium acetate and monitored at 250 nm.
Assays were carried out in 96- or 384-well plates. […] Samples were incubated at room temperature and at suitable intervals the reaction was stopped and developed by the addition of 25 p. 1 semicarbazide solution (1.26% w/v semicarbazide in 1.89% w/v sodium acetate solution). The samples were incubated for 15 mins after the final semicarbazide/sodium acetate addition and then read at 250 nm.

The IC50 is the point on the concentration scale where inhibition reaches its midpoint. As for `CC(C)C(O)C(=O)O` (stereo not shown) [2-hydroxy-3-methylbutyric acid], the IC50 is approximately 10 mM.
